Laboratory results published in patent publication US20230212584A1, “MEDICAMENT USED FOR TREATING CHOLANGIOCARCINOMA WITH KRAS MUTATIONS” (GENOMICARE BIOTECHNOLOGY (SHANGHAI) CO., LTD., priority 2022, published 2023).

Assays:
[1] = tested on: KRAS-mutated cholangiocarcinoma cell line HUCCT1; test: Cell viability assay, CellTiter-Glo (CTG) method, HUCCT1; type: cell-based; conditions: concentration higher than 2.5 μM; 1 nM Estradiol; 168 hours; lower inhibition rate than OZ; FIG. 4
Experimental: (§1) Fulvestrant was assayed for its anti-cholangiocarcinoma activity using the CTG method. The cell lines used were KRAS-mutated cholangiocarcinoma cell lines HUCCT1 and OZ, as well as KRAS wild-type cholangiocarcinoma cell line HCCC-9810. The efficacy of treatment by a medicament for cholangiocarcinoma was determined by comparing the difference in growth between KRAS-mutant-type group and wild-type group after treatment by a medicament. The specific steps were as follows:
(§2) 1) Different experimental cell lines were sub-cultured into 96-well plates. 100 μL of PBS was added around the 96-well plates as a blank, where the cholangiocarcinoma cell lines used were HUCCT, OZ and HCCC-9810. The cells in the 96-well plates were cultured overnight at 37° C., 5% CO2 and 95% humidity.
(§3) 2) The cell culture medium in the 96-well plate was discarded and 100 μL of phenol red-free RPMI1640 culture medium containing 5% Charcoal Stripped FBS was added.
(§4) 3) The cells in the 96-well plate with the changed medium were cultured at 37° C., 5% CO2, 95% humidity for another 48 hours. […]
(§5) 9) On the 11th day of the culture, CellTiter-Glo® reagent and medicament-treated cell culture plates were placed at room temperature for 30 minutes to equilibrate. […] Chemiluminescence values were read with EnVision®. […]

[2] = tested on: KRAS-mutated cholangiocarcinoma cell line OZ; test: Cell viability assay, CellTiter-Glo (CTG) method, OZ; type: cell-based; conditions: 1 μM Fulvestrant; 1 nM Estradiol; 168 hours; inhibition rate increased with concentration; FIG. 4
Experimental: as §1, §2, §3, §4, §5

For `C[C@]12CC[C@@H]3c4ccc(O)cc4C[C@@H](CCCCCCCCC[S+]([O-])CCCC(F)(F)C(F)(F)F)[C@H]3[C@@H]1CC[C@@H]2O` (some centres unmarked) [Fulvestrant], the “growth inhibition of HuCCT1” value [1] was “significantly inhibited” and the “growth inhibition of OZ” value [2] was “significant growth inhibition”.
